In US8247211B2, “Glycopeptide antibiotics” (American Cyanamid Company, priority 2001, dated 2012):
Converted amounts (≈) assume the structure as drawn.

Key:
[1] = Anatomic pathology (heart and kidney histopathology) in mice; assay type: in vivo, CD-1 mice; conditions: 20 mg/kg intravenously daily for 9 days, microscopic histopathology on day 10
Summary of the method: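 Histopathology on H&E-stained, paraffin-embedded sections, subjectively scored (slight, mild, moderate, marked, severe) relative to untreated controls. Dosing: glycopeptide antibiotics 20 mg/kg intravenously once daily ×9 days in 20-day-old CD-1 mice, n=5 per group including vehicle.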

Streptococcus sp. = assay: In vitro antibacterial evaluation: minimum inhibitory concentration (MIC), broth dilution method; assay type: cell-based; conditions: 18 hours at 35° C.
Summary of the method: (§1)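 Inoculum: 5×10^5 CFU/mL. Range: 64-0.06 μg/mL. Medium: Muller-Hinton II […]; NCCLS M7-A2 broth dilution. Endpoint: lowest concentration inhibiting growth. Strains include methicillin-, penicillin- and/or vancomycin-resistant clinical isolates.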

Escherichia coli = assay: as above; assay type: cell-based; conditions: 18 hours at 35° C.
Summary of the method: as §1

Enterococcus sp. = assay: as above; assay type: cell-based; conditions: 18 hours at 35° C.
Summary of the method: as §1

Staphylococcus sp. = assay: as above; assay type: cell-based
Summary of the method: as §1

[2] = assay type: in vivo; conditions: mice, 20 mg/kg intravenously daily for 9 days, serum on day 10
Description: 20-day-old CD-1 mice were divided into a vehicle control group (5 mice) and a treatment group (5 mice). Samples of glycopeptide antibiotics were administered at 20 mg/kg intravenously daily for 9 days. Animals were necropsied on day 10 Sera were analyzed for BUN (blood urea nitrogen), creatinine, AST (aspartic aminotransferase), and ALT (alanine aminotransferase) by routine, standard, automated methods using an Hitachi 747 chemistry analyzer.

[3] = tested on: Staphylococcus aureus-SMITH (GC 4543); assay: Acute lethal infection in mice (ED50); assay type: in vivo; conditions: female CD-1 mice, intraperitoneal challenge, intravenous dose 30 min. after infection, 7 day survival ratios
Summary of the method: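 IP bacterial challenge, female CD-1 mice; inoculum lethal to untreated controls in 24-48 hr. IV dosing in saline or 5% dextrose 30 min post-infection, 5 mice/dose. ED50 from 7-day survival, 3 tests pooled.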

[4] = broth dilution, inoculum 5×10^5 CFU/mL

Compound: N=C1NCC(C(O)C2NC(=O)C(Cc3ccc(OC4OC(CO)C(OC5OC6COC7(OC6C(O)C5O)C5CC6CC(C5)CC7C6)C(O)C4O)cc3)NC(=O)C(Cc3ccccc3)NC(=O)CNC(=O)C(CO)NC(=O)C(C(O)C3CNC(=N)N3C3OC(CO)C(O)C(O)C3O)NC2=O)N1 (centres unmarked) [Example 220]
- Anatomical Pathology (Day 10), Heart [1]: 0
- Anatomical Pathology (Day 10), Kidney [1]: +++
- MIC Streptococcus agalactiae (GC 4564) (Streptococcus sp.; Streptococcus agalactiae (GC 4564)): <0.06 µg/mL
- MIC Streptococcus pneumoniae (ATCC 6301) (Streptococcus sp.; Streptococcus pneumoniae (ATCC 6301)): <0.06 µg/mL
- MIC Streptococcus pneumoniae (GC 1894) (Streptococcus sp.; Streptococcus pneumoniae (GC 1894)): <0.06 µg/mL
- MIC Streptococcus pneumoniae (GC 4565) (Streptococcus sp.; Streptococcus pneumoniae (GC 4565)): <0.06 µg/mL
- MIC Streptococcus pyogenes (GC 4563) (Streptococcus sp.; Streptococcus pyogenes (GC 4563)): <0.06 µg/mL
- MIC Streptococcus agalactiae (GC 4564) (Streptococcus sp.; [4]): <0.06 µg/mL
- MIC Streptococcus pneumoniae (ATCC 6301) (Streptococcus sp.; [4]): <0.06 µg/mL
- MIC Streptococcus pneumoniae (GC 1894) (Streptococcus sp.; [4]): <0.06 µg/mL
- MIC Streptococcus pneumoniae (GC 4565) (Streptococcus sp.; [4]): <0.06 µg/mL
- MIC Streptococcus pyogenes (GC 4563) (Streptococcus sp.; [4]): <0.06 µg/mL
- MIC Escherichia coli (ATCC 25922) (Escherichia coli; Escherichia coli (ATCC 25922)): 32 µg/mL (≈ 22.6 µM)
- MIC Escherichia coli (GC 4559) (Escherichia coli; Escherichia coli (GC 4559)): 16 µg/mL (≈ 11.3 µM)
- MIC Escherichia coli (GC 4560) (Escherichia coli; Escherichia coli (GC 4560)): 0.5 µg/mL (≈ 0.354 µM)
- MIC Enterococcus avium (GC 4558) (Enterococcus sp.; Enterococcus avium (GC 4558)): 2 µg/mL (≈ 1.41 µM)
- MIC Enterococcus faecalis (ATCC 29212) (Enterococcus sp.; Enterococcus faecalis (ATCC 29212)): 2 µg/mL (≈ 1.41 µM)
- MIC Enterococcus faecalis (GC 2242) (Enterococcus sp.; Enterococcus faecalis (GC 2242)): 1 µg/mL (≈ 0.707 µM)
- MIC Enterococcus faecalis (GC 2691) (Enterococcus sp.; Enterococcus faecalis (GC 2691)): 2 µg/mL (≈ 1.41 µM)
- MIC Enterococcus faecalis (GC 3059) (Enterococcus sp.; Enterococcus faecalis (GC 3059)): 2 µg/mL (≈ 1.41 µM)
- MIC Enterococcus faecalis (GC 4552) (Enterococcus sp.; Enterococcus faecalis (GC 4552)): 2 µg/mL (≈ 1.41 µM)
- MIC Enterococcus faecalis (GC 4553) (Enterococcus sp.; Enterococcus faecalis (GC 4553)): 1 µg/mL (≈ 0.707 µM)
- MIC Enterococcus faecalis (GC 4554) (Enterococcus sp.; Enterococcus faecalis (GC 4554)): 2 µg/mL (≈ 1.41 µM)
- MIC Enterococcus faecalis (GC 6189) (Enterococcus sp.; Enterococcus faecalis (GC 6189)): 1 µg/mL (≈ 0.707 µM)
- MIC Enterococcus faecium (GC 2243) (Enterococcus sp.; Enterococcus faecium (GC 2243)): 1 µg/mL (≈ 0.707 µM)
- MIC Enterococcus faecium (GC 4556) (Enterococcus sp.; Enterococcus faecium (GC 4556)): 1 µg/mL (≈ 0.707 µM)
- MIC Enterococcus faecium (GC 4557) (Enterococcus sp.; Enterococcus faecium (GC 4557)): 1 µg/mL (≈ 0.707 µM)
- MIC Enterococcus avium (GC 4558) (Enterococcus sp.; [4]): 2 µg/mL (≈ 1.41 µM)
- MIC Enterococcus faecalis (ATCC 29212) (Enterococcus sp.; [4]): 2 µg/mL (≈ 1.41 µM)
- MIC Enterococcus faecalis (GC 2242) (Enterococcus sp.; [4]): 1 µg/mL (≈ 0.707 µM)
- MIC Enterococcus faecalis (GC 2691) (Enterococcus sp.; [4]): 2 µg/mL (≈ 1.41 µM)
- MIC Enterococcus faecalis (GC 3059) (Enterococcus sp.; [4]): 2 µg/mL (≈ 1.41 µM)
- MIC Enterococcus faecalis (GC 4552) (Enterococcus sp.; [4]): 2 µg/mL (≈ 1.41 µM)
- MIC Enterococcus faecalis (GC 4553) (Enterococcus sp.; [4]): 1 µg/mL (≈ 0.707 µM)
- MIC Enterococcus faecalis (GC 4554) (Enterococcus sp.; [4]): 2 µg/mL (≈ 1.41 µM)
- MIC Enterococcus faecalis (GC 6189) (Enterococcus sp.; [4]): 1 µg/mL (≈ 0.707 µM)
- MIC Enterococcus faecium (GC 2243) (Enterococcus sp.; [4]): 1 µg/mL (≈ 0.707 µM)
- MIC Enterococcus faecium (GC 4556) (Enterococcus sp.; [4]): 1 µg/mL (≈ 0.707 µM)
- MIC Enterococcus faecium (GC 4557) (Enterococcus sp.; [4]): 1 µg/mL (≈ 0.707 µM)
- MIC Staphylococcus aureus (ATCC 29213) (Staphylococcus sp.; strain ATCC 29213): 0.5 µg/mL (≈ 0.354 µM)
- MIC Staphylococcus aureus (GC 1131) (Staphylococcus sp.; strain GC 1131): 1 µg/mL (≈ 0.707 µM)
- MIC Staphylococcus aureus (GC 3051) (Staphylococcus sp.; strain GC 3051): 1 µg/mL (≈ 0.707 µM)
- MIC Staphylococcus aureus (GC 3053) (Staphylococcus sp.; strain GC 3053): 1 µg/mL (≈ 0.707 µM)
- MIC Staphylococcus aureus (GC 4541) (Staphylococcus sp.; strain GC 4541): 1 µg/mL (≈ 0.707 µM)
- MIC Staphylococcus aureus (GC 4542) (Staphylococcus sp.; strain GC 4542): 0.5 µg/mL (≈ 0.354 µM)
- MIC Staphylococcus aureus-SMITH (GC 4543) (Staphylococcus sp.; strain GC 4543): 1 µg/mL (≈ 0.707 µM)
- MIC Staphylococcus aureus (GC 4544) (Staphylococcus sp.; strain GC 4544): 1 µg/mL (≈ 0.707 µM)
- MIC Staphylococcus aureus (GC 4545) (Staphylococcus sp.; strain GC 4545): 0.5 µg/mL (≈ 0.354 µM)
- MIC Staphylococcus haemolyticus (GC 4546) (Staphylococcus sp.; strain GC 4546): 0.25 µg/mL (≈ 0.177 µM)
- MIC Coagulase Negative Staphylococcus (GC 4547) (Staphylococcus sp.; strain GC 4547): 0.5 µg/mL (≈ 0.354 µM)
- MIC Coagulase Negative Staphylococcus (GC 4548) (Staphylococcus sp.; strain GC 4548): 0.25 µg/mL (≈ 0.177 µM)
- MIC Coagulase Negative Staphylococcus (GC 4549) (Staphylococcus sp.; strain GC 4549): 0.25 µg/mL (≈ 0.177 µM)
- MIC Coagulase Negative Staphylococcus (GC 4551) (Staphylococcus sp.; strain GC 4551): 0.5 µg/mL (≈ 0.354 µM)
- Clinical Chemistry (Day 10) % of Control, BUN [2]: 149%
- Clinical Chemistry (Day 10) % of Control, Creatinine [2]: 121%
- median effective dose (ED50), Staphylococcus aureus-SMITH (GC 4543) [3]: 0.19 mg/kg
